Data as given in patent US20050031717A1, “Salt taste modification” (priority 2003, published 2005).
“Also recorded” adds a separate entry of the source.

Assays:
[1] = system: amiloride-insensitive salt taste receptor; experiment: Rat chorda tympani (CT) taste nerve recordings; type: in vivo; conditions: for effect on NaCl chorda tympani response: no Bz; for effect on RTX-enhanced NaCl chorda tympani response: 100 mM NaCl+5 μM benzamil+0.75 μM RTX, capsazepine 0-500 μM
Description: Chorda tympani nerve recordings. Recordings from the chorda tympani (CT) taste nerves of anesthetized rats were made. Recordings were made with various salt stimuli and with the taste receptive field under current or voltage clamp in order to observe the effect, if any, of modulating the driving force for ions through putative […] apical membrane ion channels involved in salt taste reception.

[2] = system: amiloride-insensitive salt taste receptor; experiment: Chorda tympani responses in wildtype C57BL/6J mice; type: in vivo, mouse
[3] = system: amiloride-insensitive salt taste receptor
[4] = system: polarized rat fungiform taste receptor cells; experiment: [Na+]i measurement (Na-green F490) in polarized taste receptor cells, unilateral apical Na+ flux; type: cell-based
Description: [Na^+]i measurement in polarized taste receptor cells. A small piece of the anterior lingual epithelium containing a single fungiform papilla was mounted in a special microscopy chamber (Lyall et al., 2002, supra). Relative changes in intracellular sodium activity ([Na^+]i) were monitored in polarized taste receptor cells with the sodium sensitive fluoroprobe sodium-green. The taste receptor cells in the taste bud were visualized from the basolateral side through a 40× objective using a fluorescence microscope.

[5] = fixed RTX concentration (0.75 μM), 100 mM NaCl+5 μM Bz

Nc1ncnc2c1ncn2[C@@H]1O[C@H](COP(=O)(O)OP(=O)(O)OP(=O)(O)O)[C@@H](O)[C@H]1O [ATP, Adenosine 5′-triphosphate]
effect on chorda tympani response compared to 100 mM NaCl+5 μM benzamil+100 μM evodiamine ([1]; 100 μM evodiamine+500 μM ATP, 100 mM NaCl+5 μM benzamil): further enhancement
effect on the temperature threshold of the Bz-insensitive NaCl chorda tympani response ([1]; ATP 500 μM alone): no effect

COc1cc(CNC(=S)CC(COC(=O)C(C)(C)C)Cc2ccc(C)c(C)c2)ccc1O (centres unmarked) [Agonist 23, 2-(3,4-dimethylbenzyl)-3-{[(4-hydroxy-3-methoxybenzyl)amino]carbothioyl}propyl pivalate]
effect on CT response at higher concentrations ([1]; 100 mM NaCl+5 μM benzamil): decrease
effect on CT response at low concentration ([1]; 100 mM NaCl+5 μM benzamil): enhances
temperature dependence of effectiveness ([1]; 41° versus 23°): more effective at 41°

NC(=NCc1ccccc1)NC(=O)c1nc(Cl)c(N)nc1N [Bz, benzamil]
part of the NaCl chorda tympani response that was Bz-insensitive ([2]; wildtype mice, 23°, 100 mM NaCl+5 μM Bz): about 25%

C=C(C)[C@]12C[C@@H](C)[C@@]34O[C@](Cc5ccccc5)(O[C@@H]1[C@@H]3C=C(COC(=O)Cc1ccc(O)c(OC)c1)C[C@]1(O)C(=O)C(C)=C[C@@H]41)O2 [RTX, resiniferatoxin]
CT response profile ([1]; 10 mM KCl+0.5 μM RTX at 23°, no ethanol): only a transient phasic response
effect of RTX on the CT response to ethanol ([1]; 10 mM KCl+40% ETH+0.5 μM RTX, 23° and 42°): enhanced the response
effect on temperature threshold of the KCl CT response ([1]; 10 mM KCl+60% ETH+0.5 μM RTX): without affecting the temperature threshold
effect on NaCl chorda tympani response ([1]; 100 mM NaCl+1 μM RTX): reversibly increased
concentration at which enhancement of the Bz-insensitive NaCl chorda tympani response begins ([1]; 100 mM NaCl+5 μM Bz): 0.1 µM
concentration at which the Bz-insensitive NaCl chorda tympani response decreased to rinse level (eliminated) ([1]; 100 mM NaCl+5 μM Bz): around 10 μM
concentration at which the NaCl response returned to control level ([1]; 100 mM NaCl+5 μM Bz): around 3 μM
concentration of maximum enhancement of the Bz-insensitive NaCl chorda tympani response ([1]; 100 mM NaCl+5 μM Bz): 1 µM
rank order potency on the Bz-insensitive NaCl chorda tympani response ([1]; 100 mM NaCl+5 μM Bz): RTX>CAP>CPC
pH of greatest RTX-induced increase in the Bz-insensitive NaCl chorda tympani response ([1]; 100 mM NaCl+5 μM Bz+0.5 μM RTX, pHo 2-10): 6
effect on Bz-insensitive NaCl chorda tympani response ([1]; 100 mM NaCl+5 μM Bz+1 μM RTX): same magnitude of enhancement
effect on NaCl chorda tympani response ([1]; 100 mM NaCl+10 μM RTX): reversibly decreased
effect on Bz-insensitive NaCl chorda tympani response ([1]; NaCl+5 μM Bz+10 μM RTX): reduced the response (j-k) to rinse level
effect on the CT responses to sucrose, quinine or H+ ions ([1]; rat, in vivo): no effect
effect on Bz-insensitive NaCl chorda tympani response ([2]; wildtype mice, 23°, 100 mM NaCl+5 μM Bz+0.75 μM RTX): enhanced
response to RTX at 42° ([2]; wildtype mice, 42°, 100 mM NaCl+5 μM Bz+0.75 μM RTX): significantly enhanced relative to 23°
effect on response to NaCl+Bz ([3]; VR1 knockout mice, 0.75 μM RTX, 23° and 42°): No effects

COc1cccc(NC(=O)C=Cc2ccc(Cl)cc2)c1 [SB-366791, N-(3-methoxyphenol)-4-chlorocinnamide]
effect on Bz-insensitive NaCl chorda tympani response at 23° and elevated temperatures ([1]; 1 μM SB-366791, 100 mM NaCl+5 μM Bz): completely blocked
effect on CT response to RTX+ETH ([1]; RTX+ETH+0.1 μM SB-366791, 23° and 42°): completely inhibited the tonic component
effect on transient phasic responses to ethanol ([1]; ethanol solutions containing 0.1 mM SB-366791): did not affect
increase in F490 on increase of apical Na+ concentration ([4]; 150 mM NaCl+): completely inhibited; also recorded: no increase
increase in F490 above baseline with ethanol ([4]; 150 mM NaCl++40% ETH): no further increase

COc1cc(CNC(=O)CCCC/C=C/C(C)C)ccc1O [capsaicin]
chorda tympani response to KCl and NH4Cl at high capsaicin ([1]; 100 mM KCl, 100 mM NH4Cl, 200 μM capsaicin): a residual response remained
concentration at which the Bz-insensitive NaCl chorda tympani response decreased to rinse level (eliminated) ([1]; 100 mM NaCl+5 μM Bz): 200 µM
concentration of maximum enhancement of the Bz-insensitive NaCl chorda tympani response ([1]; 100 mM NaCl+5 μM Bz): 40 µM
rank order potency on the Bz-insensitive NaCl chorda tympani response ([1]; 100 mM NaCl+5 μM Bz): RTX>CAP>CPC
concentration of maximum enhancement of the Bz-insensitive NaCl chorda tympani response ([1]; 100 mM NaCl+5 μM Bz, listed as CAP): around 40 μM

Oc1cc2c(cc1O)CN(C(=S)NCCc1ccc(Cl)cc1)CCC2 [capsazepine]
effect on RTX-enhanced NaCl chorda tympani response [1]: monotonically reduced
effect on RTX-enhanced NaCl chorda tympani response ([1]; listed as CZP): dose-dependent inhibition
effect on RTX concentration response curve of the Bz-insensitive NaCl chorda tympani response ([1]; CZP 10 μM, RTX 0-10 μM): shifted the RTX concentration response curve to the right
CZP concentration at which chorda tympani responses decreased to the level with NaCl alone [1, 5]: 100 µM
CZP concentration at which the chorda tympani response was below the level with NaCl alone [1, 5]: ≥ 250 µM
increase in F490 relative to 150 mM NaCl+5 mM Bz+40% ETH ([4]; 150 mM NaCl+5 mM Bz+40% ETH+100 mM CZP): significantly smaller increase

CCO [ethanol]
effect on CT response in the presence of RTX ([1]; 10 mM KCl+0.5 μM RTX, 40% ETH or 60% ETH, 23°): increased the CT response in a dose dependent manner
CT response profile ([1]; 10 mM KCl+20% ETH at 42°): phasic response followed by a sustained tonic phase
enhancement of the magnitude of the tonic component at 42° relative to 23° ([1]; 10 mM KCl+20% ETH+0.5 μM RTX): 50%
CT response profile ([1]; 10 mM KCl+20% ETH+0.5 μM RTX at 23°): both a phasic component and a sustained tonic component
CT response profile ([1]; 10 mM KCl+20% ETH, 23°): only a transient phasic response
CT response profile ([1]; 10 mM KCl+20% ETH, 23°, listed as ETH): did not increase the CT response above baseline
CT response profile ([1]; 10 mM KCl+30% ETH): only a transient phasic response
magnitude of CT response at 42° relative to 23° ([1]; 10 mM KCl+40% ETH): enhanced
CT response profile ([1]; 10 mM KCl+40% ETH, 23°, listed as ETH): transient phasic response that was followed by a sustained tonic response; also recorded: both a phasic and a tonic component
CT response profile ([1]; 10 mM KCl+50% ETH and 10 mM KCl+60% ETH): both phasic and tonic components
temperature producing a sharp increase in the KCl CT response ([1]; 10 mM KCl+60% ETH): 380
temperature of maximum enhancement of the KCl CT response ([1]; 10 mM KCl+60% ETH, 23° to 55.5°): 41 °
effect on magnitude of the Bz-insensitive NaCl CT response ([1]; 100 mM NaCl+5 mM Bz+60% ethanol): decreased
effect on magnitude of the Bz-insensitive NaCl CT response ([1]; 100 mM NaCl+5 mM Bz+ETH, 20% to 40% ethanol): dose-dependent increase
effect of 42° on CT response to ethanol relative to 23° ([1]; 80% ethanol, H2O rinse): no effect
ethanol concentration that inhibited CT responses ([1]; KCl and NaCl): > 60%
CT response to ethanol alone ([1]; ethanol 40%-100% in distilled H2O, 23°): only a transient phasic component
CT response relative to 10 mM KCl ([2]; WT mice, 10 mM KCl+60% ETH): greater CT response
effect on Bz-insensitive NaCl CT response ([2]; WT mice, 100 mM NaCl+5 μM Bz+60% ETH): inhibited the CT response
increase in F490 relative to zero ethanol ([4]; 150 NaCl+5 mM Bz+10% ethanol): bigger increase
increase in F490 relative to 10% ethanol ([4]; 150 NaCl+5 mM Bz+40% ethanol): further increase
change in F490 relative to zero ethanol ([4]; Na+-free Ringer's solution, 10% or 40% ethanol): no changes
CT response to R+60% ETH ([3]; VR1 KO mice, 10 mM KCl+60% ETH): no CT response
effect on the NaCl CT response or the Bz-insensitive NaCl CT response ([3]; VR1 KO mice, 60% ETH): no effect

Evodiamine
effect on chorda tympani response in rinse solution ([1]; 100 μM evodiamine in 10 mM KCl): no effect
concentration at which enhancement of the Bz-insensitive NaCl chorda tympani response begins ([1]; 100 mM NaCl+5 μM Bz): 30 µM
concentration of maximum enhancement of the Bz-insensitive NaCl chorda tympani response ([1]; 100 mM NaCl+5 μM Bz): 300 µM
concentration at which the response is the same as the control response ([1]; 100 mM NaCl+5 μM benzamil): 3 mM
effect on chorda tympani response at concentrations higher than 3 mM ([1]; 100 mM NaCl+5 μM benzamil): inhibited
